In brackets after ≈: the same amount, converted by molar mass.
What follows are compounds tested on Vaccinia virus (assay: Concentration required to reduce cytopathogenicity of vaccinia virus by 50% in primary rabbit kidney (PRK) cells).
Format: functional, Orthopoxvirus vaccinia

Question: For Nc1nc2c(nc(I)n2COCCO)c(=O)[nH]1, which ID50 is on record?
Answer: >400 µg/mL

Question: How did the ID50 turn out when CNc1nc2c(=O)[nH]c(N)nc2n1COCCO was run?
Answer: >400 µg/mL

Question: Which ID50 does the source give for CN(C)c1nc2c(=O)[nH]c(N)nc2n1COCCO here?
Answer: >=300 ug ml-1

Question: For Nc1nc2c(nc(O)n2COCCO)c(=O)[nH]1, which ID50 is on record?
Answer: >400 µg/mL

Question: How did the ID50 turn out when Nc1nc2c(nc(Br)n2COCCO)c(=O)[nH]1 was run?
Answer: >400 µg/mL

Question: With Nc1nc(Cl)c2ncn(COCCO)c2n1 as the compound, how does the ID50 read?
Answer: 70 µg/mL (≈ 287 µM)

Question: How did the ID50 turn out when Nc1ccn(COCCO)c(=O)n1 was run?
Answer: >400 µg/mL

Question: Which ID50 does the source give for CC(=O)OCCOCn1cnc2c(Cl)nc(N)nc21 here?
Answer: 70 µg/mL (≈ 245 µM)

Question: How did the ID50 turn out when Nc1nc(O)c2nc(N3CCCCC3)n(COCCO)c2n1 was run?
Answer: >400 µg/mL

Question: For CC(=O)OCCOCn1cnc2c(Cl)ncnc21, which ID50 is on record?
Answer: 20 µg/mL (≈ 73.9 µM)

Question: How did the ID50 turn out when Nc1nc2c(nc(N)n2COCCO)c(=O)[nH]1 was run?
Answer: >100 µg/mL

Question: Which ID50 does the source give for Nc1ncnc2c1ncn2COCCO here?
Answer: 20 µg/mL (≈ 95.6 µM)

Question: Cc1nc2c(O)nc(N)nc2n1COCCO was tested. Which ID50 did it give?
Answer: >400 µg/mL

Question: Which ID50 does the source give for Nc1nc2c(ncn2COCCO)c(=O)[nH]1 [ACYCLOVIR] here?
Answer: 50 µg/mL (≈ 222 µM)

Question: Which ID50 does the source give for O=c1[nH]c(=O)n([C@H]2C[C@H](O)[C@@H](CO)O2)cc1/C=C/Br [BRIVUDINE] here?
Answer: 7 µg/mL (≈ 21 µM)

Question: With O=c1[nH]c(=O)n([C@H]2C[C@H](O)[C@@H](CO)O2)cc1I [IDOXURIDINE] as the compound, how does the ID50 read?
Answer: 0.2 µg/mL (≈ 0.565 µM)

— ChEMBL document CHEMBL1122521, “Nucleic acid related compounds. 47. Synthesis and biological activities of pyrimidine and purine "acyclic" nucleoside analogues” (J Med Chem, 1984)
